The values below come from patent publication US7955852B2, “Expansion of renewable stem cell populations” (Gamida Cell Ltd., priority 2002, dated 2011).

Series [1] has as its system CD34+ cells. As to the kind of experiment: Colony forming unit (CFU / LTC-CFUc) ability of ex-vivo CD34+ cell cultures. The class given is cell-based, human. Particulars: for No. of CFU*103: 10^−5 M, treated for one week only. On the procedure: (§1) Total cell counts, numbers of CD34^+ cells and subsets, and CFU numbers are presented as cumulative numbers, with the assumption that the cultures had not been passaged; i.e., the number of cells per ml were multiplied by the number of passages performed.
Cells were cloned in semi-solid, methylcellulose-containing medium supplemented with 2 IU/ml erythropoietin (Eprex, Cilag AG Int., Switzerland), stem cell factor and IL-3, both at 20 ng/ml, and G-CSF and GM-CSF, both at 10 ng/ml (all from Perpo Tech). Cultures were incubated for 14 days at 37° C., 5% CO2 in a humidified atmosphere.
Briefly, the ability of the cultures to maintain self-renewal was measured by determination of the content of colony forming unit cells in the long and extended long-term cultures (LTC-CFUc), as described in the references hereinabove.

For series [2], the system named is mononuclear cells. Nature of the series: Ex-vivo expansion of whole mononuclear cell fraction (MNC) cultures; FACS of reselected CD34+ cells. The following applies: 10^−6 M + cytokines; for % CD34/Lin−: reselected CD34+ fraction, listed as RAR antagonist. It counts as cell-based, human. On the procedure: Human blood cells were obtained from umbilical cord blood from female patients following full-term, normal delivery (informed consent was obtained).
Samples were collected and processed within 12 hours postpartum. Blood was mixed with 3% Gelatin (Sigma, St. Louis, Mo.), sedimented for 30 minutes to remove most red blood cells. The leukocyte-rich fraction was harvested and layered on a Ficoll-Hypaque gradient (1.077 gram/ml; Sigma), and centrifuged at 400 g for 30 minutes. The mononuclear cell fraction in the interface layer was collected, washed three times and resuspended in phosphate-buffered saline (PBS) solution (Biological Industries) containing 0.5% bovine serum albumin (BSA, Fraction V; Sigma).
Alternatively, whole mononuclear fraction cells (MNC) were isolated, cultured and supplemented with cytokines, as above.
CD34^+ purified and whole MNC cultures were prepared and maintained as described above. AGN 194310 RAR antagonist was added to test cultures at concentrations ranging from 1×10^−3-1×10^−11 M [or 410 μg/l to 4.1×10^−5 μg/l]. The antagonist was added for a predetermined, limited period, for up to three weeks or continuously during the entire culture period.
CD34 surface expression on short and long-term cultures initiated either with purified CD34^+ cells or the entire MNC fraction was determined as follows: CD34^+ cells were positively reselected (Miltenyi kit) and counted. Purity was confirmed by subsequent FACS and cell morphology analysis.
Reselected CD34^+ cell subsets were stained for the following combination of antigens: CD34PE/CD38FITC and CD34PE/38, 33, 14, 15, 3, 4, 61, 19 (Lin) FITC. The fraction positive for CD34 and negative for CD38 was defined as CD34^+CD38^−. The fraction positive for CD34 and negative for LIN was defined as CD34^+Lin^− cell fraction.
as §1

For series [3], the system named is primary hepatocytes. Nature of the series: Primary hepatocyte cultures; α-fetoprotein/albumin immunostaining and Giemsa morphology. The class given is cell-based, mice. Particulars: for oval cell population (Giemsa) / α-fetoprotein (AFP) expression vs control: 10^−5 M, three week old primary cultures, no cytokines. Here is the method: Three intact livers were harvested from 3 week old VLVC female mice (Harlan Laboratories, Jerusalem, Israel), dissected and washed twice with DMEM (Beit Haemek, Israel), incubated with DMEM in the presence 0.05% collagenase for 30 minutes at 37° C., ground and passed through a 200 μm mesh sieve, yielding individual hepatocytes. Cells were washed twice and viability was ascertained with trypan blue. Cells were plated in collagen-coated, 35 mm tissue culture plates at a density of 4-×10^4 live cells/ml in F12 media (containing 15 mM Hepes, 0.1% glucose, 10 mM sodium bicarbonate, 100 units/ml penicillin-streptomycin, glutamine, 0.5 units/ml insulin, 7.5 m cg/ml hydrocortisone, and 10% fetal bovine serum). Medium was changed after 12 hours, the cells were washed twice with phosphate buffered saline (PBS) and new medium was added. Medium was changed twice a week.
Hepatocytes were also grown in the presence of Epidermal Growth Factor (EGF), Platelet-Derived Growth Factor β chain (PDGF-BB), Fibroblast growth Factors (FGF4) and Hepatocyte Growth Factor (HGF), at 20-50 ng/ml each, for the entire culturing period according to the method of Schwartz et al. (Schwartz R E, Reyes M, Koodie L, Jiang Y, Blackstad M, Lund T, Lenvik T, Johnson S, Hu W S, Verfaillie C M. Multipotent adult progenitor cells from bone marrow differentiate into functional hepatocyte-like cells. J Clin Invest. 2002; 109 (10): 1291-302). Hepatocytes were also grown in serum free medium according to the method of Runge et al. (Runge D, Runge D M, Jager D, Lubecki K A, Beer Stolz D, Karathanasis S, Kietzmann T, Strom S C, Jungermann K, Fleig W E, Michalopoulos G K. Serum-free, long-term cultures of human hepatocytes: maintenance of cell morphology, transcription factors, and liver-specific functions. Biochem Biophys Res Commun. 2000; 269(1): 46-53).
In all of the above-mentioned hepatocytes culture conditions, cells are grown in the presence or absence of the retinoic acid antagonist AGN 194310 at concentrations ranging from 10^−5 M to 10^−9 M.
After a period of 3 weeks, cultures treated with 10^−5 M antagonist were detached with 0.25% trypsin, split and replated at a 1:2 ratio. The cells were either immunostained as described below, or visualized with Giemsa staining.
Murine hepatocyte cultures supplemented with EGF and HGF were evaluated as primary cultures, or following first and second passages. First passage cultures were grown for 2 weeks, split 1:2 and immunostained 8 days later for the presence of albumin, as described below. Second passage cultures were similarly grown for 2 weeks, split 1:2, and grown for an additional week, then split 1:4 and similarly immunostained 4 days later.
Ex-vivo expanded cells and hepatocytes were stained with Giemsa stain, according to manufacturer's instructions (Shandon, Pittsburg, Pa.) for 4 minutes at room temperature, washed in buffer solution for 4 minutes and washed 3-4 times with rinse solution.
Hepatocytes were probed for expression of α-fetoprotein (AFP) using a rabbit polyclonal antibody raised against a recombinant protein of human origin that cross-reacts with AFP from mouse (H-140 Santa Cruz Technology, Santa Cruz, Calif.), and albumin using a rabbit antiserum to mouse albumin (Cappel-ICN, Aurora, Ohio). Cells were fixed in methanol at −20° C. for 10 minutes, rinsed with PBS for 5 minutes, and permeabilized with 0.1% triton-X (Sigma, Jerusalem, Israel) in PBS for 5 minutes. The cells were then washed with Tris buffer saline (TBS) for 5 minutes and incubated with 1% bovine serum albumin (BSA) in PBS for 10 minutes. Endogeneous peroxidases were inactivated by incubation with peroxidase block (Envision, Dako, Carpinteria, Calif.) for 5 minutes, at room temperature. Cells were incubated with antibodies raised in rabbit against mouse albumin (at a dilution of 1:100); or against α-fetoprotein (at a dilution of 1:25) for 30 minutes. […]

[4] abbreviates: listed as retinoic acid antagonist.

“And” between values parts separate entries of the source, which are not always exact repeats. Equal entries are not always repeated.

On to `CCc1ccc(C2=CC(C)(C)Sc3ccc(C#Cc4ccc(C(=O)O)cc4)cc32)cc1` [AGN 194310, 4-[[4-(4-ethylphenyl)-2,2-dimethyl-(2H)-thiochroman-6-yl]-ethynyl]benzoic acid], for which the figures for the “No. of CFU*103” value in series [1] (week 13) and in series [1] (week 20) were 66355 *103 and 0 *103, respectively. The “increase of CFU content” value in series [1] (extended long-term (8-10 week) cultures, pulse-treatment or continuous treatment) is listed as 15 ×10^4. In addition, the “increase in CFU content as compared to control” value in series [1] (long-term (6 weeks) cultures pulsed for the first 3 weeks) came out at 5 fold; in series [1] (long-term cultures, antagonist administered continuously) it was 5 fold. Also, the “mixed colony forming unit (CFU-mix) content vs control” value in series [1] (long-term cultures, pulsed first 3 weeks or continuous (FIG. 7)) is given as “dramatic increase”. Also, the “No of CD34+/Lin− × 10^4 (cumulative value)” value in series [2] (2 weeks) is reported as 132.5 × 10^4; in series [2] (5 weeks), 237.8 × 10^4. Also, the “No of CD34 cells × 10^4 (cumulative value)” value in series [2] (2 weeks) is given as 169 × 10^4; in series [2] (5 weeks) it was 985 × 10^4. In addition, the “% CD34/Lin−” value was 78% and 78.4% in series [2] (2 weeks); 24% and 24.1% in series [2] (5 weeks). In addition, in series [3] (10^−5 M to 10^−7 M, second passage, EGF and HGF supplemented), the “number of hepatocytes in second passage cultures vs controls” value was “Significantly greater numbers of hepatocytes”. The “oval cell population (Giemsa)” value is listed as “marked increase” in series [3] and “large population” in series [3] (setting [4]). The “α-fetoprotein (AFP) expression vs control” value is given as “marked increase” in series [3] and “increase” in series [3] (setting [4]). Moreover, the “oval cells in first passage cultures” value in series [3] (first passage, EGF and HGF supplemented) is “numerous islets of oval cells”. Moreover, the α-fetoprotein staining entry in series [3] (three weeks old primary cultures supplemented with EGF and HGF) is “Significant strong AFP staining”.
